“And” between values parts separate entries of the source, which are not always exact repeats. Identical values can stand only once.
tested on: Rattus norvegicus; assay: Anti-inflammatory activity in Wistar rat assessed as inhibition of carrageenan-induced paw edema at 10 mg/kg, ip pretreated for 1 hr followed by carrageenan challenge and measured after 3 hr relative to control (reference value: 0.00 +/-0.1 %); assay type: functional; conditions: time 4 hrs

Row | SMILES | inhibition in vivo at 10 mg/kg [%]
1 | COc1cc(/C=C/C(=O)/C=C(O)/C=C/c2ccc(OC(=O)[C@@H](NC(=O)OCC3c4ccccc4-c4ccccc43)C(C)C)c(OC)c2)ccc1OC(=O)[C@@H](NC(=O)OCC1c2ccccc2-c2ccccc21)C(C)C | 50

tested on: Rattus norvegicus; assay: Antiinflammatory activity in Wistar rat model of carrageenan-induced paw edema assessed as reduction in thickness of paw edema at 10 mg/kg, ip pretreated for 1 hr followed by carrageenan challenge and measured after 4 hrs (reference value: 1.40 +/-0.10 mm); assay type: functional; conditions: time 5 hrs

Row | SMILES | Activity [mm]
2 | COc1cc(/C=C/C(=O)/C=C(O)/C=C/c2ccc(OC(=O)[C@@H](NC(=O)OCC3c4ccccc4-c4ccccc43)C(C)C)c(OC)c2)ccc1OC(=O)[C@@H](NC(=O)OCC1c2ccccc2-c2ccccc21)C(C)C | 0.66

tested on: Salmonella typhimurium; assay: Antibacterial activity against Salmonella typhimurium ATCC 19430 incubated for 18 hrs by agar dilution assay; assay type: functional, Salmonella enterica subsp. enterica serovar Typhimurium; conditions: Salmonella enterica

Row | MIC | SMILES
3 | 0.5 µg/mL and 0.494 µM | COc1cc(/C=C/C(=O)/C=C(O)/C=C/c2ccc(OC(=O)[C@@H](NC(=O)OCC3c4ccccc4-c4ccccc43)C(C)C)c(OC)c2)ccc1OC(=O)[C@@H](NC(=O)OCC1c2ccccc2-c2ccccc21)C(C)C

tested on: Pseudomonas aeruginosa; assay: Antibacterial activity against Pseudomonas aeruginosa ATCC 27853 incubated for 18 hrs by agar dilution assay; assay type: functional; conditions: not given

Row | MIC | SMILES
4 | 0.5 µg/mL and 0.494 µM | COc1cc(/C=C/C(=O)/C=C(O)/C=C/c2ccc(OC(=O)[C@@H](NC(=O)OCC3c4ccccc4-c4ccccc43)C(C)C)c(OC)c2)ccc1OC(=O)[C@@H](NC(=O)OCC1c2ccccc2-c2ccccc21)C(C)C

tested on: Rattus norvegicus; assay: Anti-inflammatory activity in Wistar rat assessed as inhibition of carrageenan-induced paw edema at 10 mg/kg, ip pretreated for 1 hr followed by carrageenan challenge and measured after 24 hr relative to control (reference value: 0.00 +/-0.3 %); assay type: functional; conditions: time 25 hrs

Row | SMILES | inhibition in vivo at 10 mg/kg [%]
5 | COc1cc(/C=C/C(=O)/C=C(O)/C=C/c2ccc(OC(=O)[C@@H](NC(=O)OCC3c4ccccc4-c4ccccc43)C(C)C)c(OC)c2)ccc1OC(=O)[C@@H](NC(=O)OCC1c2ccccc2-c2ccccc21)C(C)C | 47

tested on: Peritoneal macrophage; assay: Antiinflammatory activity in […] mouse Peritoneal macrophages assessed as inhibition of LPS-induced NO production at 10 uM preincubated for 1 hr followed by LPS stimulation measured after 24 hrs by Griess method relative to control (reference value: 0.0 %); assay type: functional; set-up: scale not given: the % may be the effect or the level left; conditions: time 25 hrs

Row | SMILES | Activity [%]
6 | COc1cc(/C=C/C(=O)/C=C(O)/C=C/c2ccc(OC(=O)[C@@H](NC(=O)OCC3c4ccccc4-c4ccccc43)C(C)C)c(OC)c2)ccc1OC(=O)[C@@H](NC(=O)OCC1c2ccccc2-c2ccccc21)C(C)C | 12.46

tested on: Rattus norvegicus; assay: Antiinflammatory activity in Wistar rat model of carrageenan-induced paw edema assessed as reduction in thickness of paw edema at 10 mg/kg, ip pretreated for 1 hr followed by carrageenan challenge and measured after 1 hr (reference value: 2.41 +/-0.05 mm); assay type: functional; conditions: time 1 hr after carrageenan

Row | SMILES | Activity [mm]
7 | COc1cc(/C=C/C(=O)/C=C(O)/C=C/c2ccc(OC(=O)[C@@H](NC(=O)OCC3c4ccccc4-c4ccccc43)C(C)C)c(OC)c2)ccc1OC(=O)[C@@H](NC(=O)OCC1c2ccccc2-c2ccccc21)C(C)C | 1.88

tested on: Rattus norvegicus; assay: Antiinflammatory activity in Wistar rat model of carrageenan-induced paw edema assessed as reduction in thickness of paw edema at 10 mg/kg, ip pretreated for 1 hr followed by carrageenan challenge and measured after 2 hrs (reference value: 2.06 +/-0.09 mm); assay type: functional; conditions: time 3 hrs

Row | SMILES | Activity [mm]
8 | COc1cc(/C=C/C(=O)/C=C(O)/C=C/c2ccc(OC(=O)[C@@H](NC(=O)OCC3c4ccccc4-c4ccccc43)C(C)C)c(OC)c2)ccc1OC(=O)[C@@H](NC(=O)OCC1c2ccccc2-c2ccccc21)C(C)C | 1.05

tested on: Peritoneal macrophage; assay: Antiinflammatory activity in […] mouse Peritoneal macrophages assessed as reduction in LPS-induced NO production by measuring reduction in stimulation index at 10 uM preincubated for 1 hr followed by LPS stimulation measured after 24 hrs by Griess method (reference value: 27.31 +/- 2.56 uM); assay type: functional; conditions: time 25 hrs

Row | SMILES | Activity [µM]
9 | COc1cc(/C=C/C(=O)/C=C(O)/C=C/c2ccc(OC(=O)[C@@H](NC(=O)OCC3c4ccccc4-c4ccccc43)C(C)C)c(OC)c2)ccc1OC(=O)[C@@H](NC(=O)OCC1c2ccccc2-c2ccccc21)C(C)C | 23.91

tested on: Rattus norvegicus; assay: Antiinflammatory activity in Wistar rat model of carrageenan-induced paw edema assessed as reduction in thickness of paw edema at 10 mg/kg, ip pretreated for 1 hr followed by carrageenan challenge and measured after 24 hrs (reference value: 0.83 +/-0.08 mm); assay type: functional; conditions: time 25 hrs

Row | SMILES | Activity [mm]
10 | COc1cc(/C=C/C(=O)/C=C(O)/C=C/c2ccc(OC(=O)[C@@H](NC(=O)OCC3c4ccccc4-c4ccccc43)C(C)C)c(OC)c2)ccc1OC(=O)[C@@H](NC(=O)OCC1c2ccccc2-c2ccccc21)C(C)C | 0.44

tested on: Streptococcus pyogenes; assay: Antibacterial activity against Streptococcus pyogenes ATCC 19615 incubated for 18 hrs by agar dilution method; assay type: functional; conditions: not given

Row | MIC | SMILES
11 | 0.5 µg/mL and 0.494 µM | COc1cc(/C=C/C(=O)/C=C(O)/C=C/c2ccc(OC(=O)[C@@H](NC(=O)OCC3c4ccccc4-c4ccccc43)C(C)C)c(OC)c2)ccc1OC(=O)[C@@H](NC(=O)OCC1c2ccccc2-c2ccccc21)C(C)C

tested on: Rattus norvegicus; assay: Anti-inflammatory activity in Wistar rat assessed as inhibition of carrageenan-induced paw edema at 10 mg/kg, ip pretreated for 1 hr followed by carrageenan challenge and measured after 1 hr relative to control (reference value: 0.00 +/-0.02 %); assay type: functional; conditions: time 2 hrs

Row | SMILES | inhibition in vivo at 10 mg/kg [%]
12 | COc1cc(/C=C/C(=O)/C=C(O)/C=C/c2ccc(OC(=O)[C@@H](NC(=O)OCC3c4ccccc4-c4ccccc43)C(C)C)c(OC)c2)ccc1OC(=O)[C@@H](NC(=O)OCC1c2ccccc2-c2ccccc21)C(C)C | 22

tested on: Rattus norvegicus; assay: Anti-inflammatory activity in Wistar rat assessed as inhibition of carrageenan-induced paw edema at 10 mg/kg, ip pretreated for 1 hr followed by carrageenan challenge and measured after 2 hr relative to control (reference value: 0.00 +/-0.03 %); assay type: functional; conditions: time 3 hrs

Row | SMILES | inhibition in vivo at 10 mg/kg [%]
13 | COc1cc(/C=C/C(=O)/C=C(O)/C=C/c2ccc(OC(=O)[C@@H](NC(=O)OCC3c4ccccc4-c4ccccc43)C(C)C)c(OC)c2)ccc1OC(=O)[C@@H](NC(=O)OCC1c2ccccc2-c2ccccc21)C(C)C | 49

tested on: Staphylococcus aureus; assay: Antibacterial activity against Staphylococcus aureus ATCC 25923 incubated for 18 hrs by agar dilution method; assay type: functional; conditions: not given

Row | MIC | SMILES
14 | 0.25 µg/mL and 0.247 µM | COc1cc(/C=C/C(=O)/C=C(O)/C=C/c2ccc(OC(=O)[C@@H](NC(=O)OCC3c4ccccc4-c4ccccc43)C(C)C)c(OC)c2)ccc1OC(=O)[C@@H](NC(=O)OCC1c2ccccc2-c2ccccc21)C(C)C

tested on: Splenocyte; assay: Immunomodulatory activity in Swiss albino mouse splenocytes assessed as cell viability at 10 uM by measuring stimulation index incubated for 72 hrs in presence of mitogenic stimulus phytohaemagglutinin by MTT assay (reference value: 1.00 +/- 0.24); assay type: functional; conditions: not given

Row | SMILES | Activity_index
15 | COc1cc(/C=C/C(=O)/C=C(O)/C=C/c2ccc(OC(=O)[C@@H](NC(=O)OCC3c4ccccc4-c4ccccc43)C(C)C)c(OC)c2)ccc1OC(=O)[C@@H](NC(=O)OCC1c2ccccc2-c2ccccc21)C(C)C | 2.55

tested on: Rattus norvegicus; assay: Anti-inflammatory activity in Wistar rat assessed as inhibition of carrageenan-induced paw edema at 10 mg/kg, ip pretreated for 1 hr followed by carrageenan challenge and measured after 4 hr relative to indomethacin; assay type: functional; conditions: time 5 hrs

Row | SMILES | inhibition in vivo at 10 mg/kg [%]
16 | COc1cc(/C=C/C(=O)/C=C(O)/C=C/c2ccc(OC(=O)[C@@H](NC(=O)OCC3c4ccccc4-c4ccccc43)C(C)C)c(OC)c2)ccc1OC(=O)[C@@H](NC(=O)OCC1c2ccccc2-c2ccccc21)C(C)C | 61

tested on: Rattus norvegicus; assay: Antiinflammatory activity in Wistar rat model of carrageenan-induced paw edema assessed as reduction in thickness of paw edema at 10 mg/kg, ip pretreated for 1 hr followed by carrageenan challenge and measured after 3 hrs (reference value: 1.79 +/-0.07 mm); assay type: functional; conditions: time 4 hrs

Row | SMILES | Activity [mm]
17 | COc1cc(/C=C/C(=O)/C=C(O)/C=C/c2ccc(OC(=O)[C@@H](NC(=O)OCC3c4ccccc4-c4ccccc43)C(C)C)c(OC)c2)ccc1OC(=O)[C@@H](NC(=O)OCC1c2ccccc2-c2ccccc21)C(C)C | 0.9

tested on: Candida albicans; assay: Antifungal activity against Candida albicans incubated for 18 to 24 hrs by CLSI method; assay type: functional; conditions: time 18-24 hrs

Row | MIC | SMILES
18 | 0.5 µg/mL and 0.494 µM | COc1cc(/C=C/C(=O)/C=C(O)/C=C/c2ccc(OC(=O)[C@@H](NC(=O)OCC3c4ccccc4-c4ccccc43)C(C)C)c(OC)c2)ccc1OC(=O)[C@@H](NC(=O)OCC1c2ccccc2-c2ccccc21)C(C)C

tested on: Rattus norvegicus; assay: Anti-inflammatory activity in Wistar rat assessed as inhibition of carrageenan-induced paw edema at 10 mg/kg, ip pretreated for 1 hr followed by carrageenan challenge and measured after 4 hr relative to control (reference value: 0.00 +/-0.4 %); assay type: functional; conditions: time 5 hrs

Row | SMILES | inhibition in vivo at 10 mg/kg [%]
19 | COc1cc(/C=C/C(=O)/C=C(O)/C=C/c2ccc(OC(=O)[C@@H](NC(=O)OCC3c4ccccc4-c4ccccc43)C(C)C)c(OC)c2)ccc1OC(=O)[C@@H](NC(=O)OCC1c2ccccc2-c2ccccc21)C(C)C | 53

tested on: Splenocyte; assay: Immunomodulatory activity in Swiss albino mouse splenocytes assessed as cell viability at 10 uM by measuring inhibition of stimulation index incubated for 72 hrs in presence of mitogenic stimulus phytohaemagglutinin by MTT assay relative to indomethacin; assay type: functional; conditions: read-out: Activity

Row | SMILES | viability at 10 µM [%]
20 | COc1cc(/C=C/C(=O)/C=C(O)/C=C/c2ccc(OC(=O)[C@@H](NC(=O)OCC3c4ccccc4-c4ccccc43)C(C)C)c(OC)c2)ccc1OC(=O)[C@@H](NC(=O)OCC1c2ccccc2-c2ccccc21)C(C)C | 47.5

Reference: ChEMBL document CHEMBL4765295, “Synthesis, pharmacological profile and 2D-QSAR studies of curcumin-amino acid conjugates as potential drug candidates” (Eur J Med Chem, 2020)
